The results in this text go back to patent US20170173008A1, “ANTIMICROBIAL AGENTS AND SCREENING METHODS” (PRESIDENT AND FELLOWS OF HARVARD COLLEGE, priority 2014, published 2017).

What is called pEC50 is the EC50 on a negative log10 scale, so that one unit is a factor of ten. A high value points to a small EC50. The pIC50 is −log10 of the IC50, conventionally taken in molar units. A word on the IC50: it is the point on the concentration scale where inhibition reaches its midpoint. A higher IC50 goes with lower potency.

pEC50, pIC50: −log10 of the molar value. ≈ marks a conversion by molar mass, not a printed value. Entries after “also recorded” stand apart in the source; their conditions may differ. Read-outs that look alike come from different tables or passages of the source.

The target of one test is T1, PDI (Homo sapiens, UniProt P07237).
T1 construct: His; purchased Prospec, East Brunswick, N.J
T1 sequence (P07237 18-508, species assumed): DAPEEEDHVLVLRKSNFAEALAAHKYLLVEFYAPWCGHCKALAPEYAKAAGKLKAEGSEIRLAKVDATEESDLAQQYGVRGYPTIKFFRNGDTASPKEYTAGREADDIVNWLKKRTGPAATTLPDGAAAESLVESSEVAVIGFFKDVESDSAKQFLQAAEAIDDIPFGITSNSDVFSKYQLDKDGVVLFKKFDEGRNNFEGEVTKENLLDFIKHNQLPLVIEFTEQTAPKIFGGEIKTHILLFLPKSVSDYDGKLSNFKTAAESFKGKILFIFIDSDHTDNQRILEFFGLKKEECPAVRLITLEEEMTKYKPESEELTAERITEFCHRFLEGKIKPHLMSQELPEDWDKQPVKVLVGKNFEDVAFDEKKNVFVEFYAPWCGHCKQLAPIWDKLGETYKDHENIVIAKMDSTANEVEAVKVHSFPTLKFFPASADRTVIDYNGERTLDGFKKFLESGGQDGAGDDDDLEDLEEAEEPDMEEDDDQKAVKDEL
Briefly: Insulin reductase activity assay, PDI. The test is classed as biochemical.

The target of a further test is T2, mouse VKORc1 (Mus musculus, UniProt Q9CRC0).
T2 construct: Solubilized mouse liver microsomes (20 μL) were added to 180 μL of buffer; from tissue; host or cells: mouse liver (solubilized microsomes)
T2 sequence (Q9CRC0 1-161): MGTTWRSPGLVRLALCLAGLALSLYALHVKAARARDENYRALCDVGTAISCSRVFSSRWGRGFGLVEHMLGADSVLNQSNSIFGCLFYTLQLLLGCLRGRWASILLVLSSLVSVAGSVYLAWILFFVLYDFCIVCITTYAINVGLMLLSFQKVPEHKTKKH
The test is described as follows: Assay for VKOR enzymatic activity in mouse liver microsomes. Type of test: biochemical. (In general: Microsomes from liver hold many membrane-bound enzymes, among them those of drug oxidation.)

In the next test the test system is M. tuberculosis H37Rv. The test is described as follows: M. tuberculosis H37Rv growth inhibition (Alamar Blue MIC). The settings on record: three different media. The test is classed as cell-based, Mycobacterium tuberculosis. In general terms: Alamar Blue is a resazurin reagent that responds to reducing activity.
For another test, the target named is T3, Erp5 (Homo sapiens, UniProt Q15084).
T3 construct: His; Passam F., Furie B., Furie B.C; (persons named as the source, not a vendor)
T3 sequence (Q15084 20-440): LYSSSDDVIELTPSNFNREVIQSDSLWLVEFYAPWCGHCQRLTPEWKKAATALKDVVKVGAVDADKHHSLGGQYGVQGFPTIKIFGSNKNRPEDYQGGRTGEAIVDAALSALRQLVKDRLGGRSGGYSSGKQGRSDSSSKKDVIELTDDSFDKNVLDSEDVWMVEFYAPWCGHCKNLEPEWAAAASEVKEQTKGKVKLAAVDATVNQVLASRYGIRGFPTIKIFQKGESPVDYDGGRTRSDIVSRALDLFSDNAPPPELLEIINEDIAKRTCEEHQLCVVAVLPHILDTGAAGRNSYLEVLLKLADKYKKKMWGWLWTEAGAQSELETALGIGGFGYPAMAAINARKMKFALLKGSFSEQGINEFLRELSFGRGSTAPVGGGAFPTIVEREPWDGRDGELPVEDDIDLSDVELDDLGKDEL
The test is described as follows: Insulin reductase activity assay, Erp5. The test is classed as biochemical.

The target in the next test is T4, Erp57 (Homo sapiens, UniProt P30101).
T4 construct: His; purchased AbCam, Cambridge, Mass
T4 sequence (P30101 25-505): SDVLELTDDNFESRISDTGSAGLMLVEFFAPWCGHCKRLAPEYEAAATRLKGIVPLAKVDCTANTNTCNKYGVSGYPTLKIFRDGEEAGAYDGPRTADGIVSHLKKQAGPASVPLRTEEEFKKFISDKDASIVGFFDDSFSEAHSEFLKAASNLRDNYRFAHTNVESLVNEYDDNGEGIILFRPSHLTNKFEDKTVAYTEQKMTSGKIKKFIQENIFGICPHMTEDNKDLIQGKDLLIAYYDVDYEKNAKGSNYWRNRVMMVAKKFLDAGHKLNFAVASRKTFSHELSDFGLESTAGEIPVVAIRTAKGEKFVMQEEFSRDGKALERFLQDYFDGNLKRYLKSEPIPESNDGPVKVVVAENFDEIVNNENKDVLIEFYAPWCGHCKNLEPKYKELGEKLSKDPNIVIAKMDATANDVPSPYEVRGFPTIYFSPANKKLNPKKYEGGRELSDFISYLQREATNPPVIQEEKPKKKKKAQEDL
Briefly: Insulin reductase activity assay, Erp57. Type of test: biochemical.

The next test deals with T5, Erp72 (Homo sapiens, UniProt P13667).
T5 construct: His; purchased Enzo, Farmingdale, N.Y
T5 sequence (P13667 21-645): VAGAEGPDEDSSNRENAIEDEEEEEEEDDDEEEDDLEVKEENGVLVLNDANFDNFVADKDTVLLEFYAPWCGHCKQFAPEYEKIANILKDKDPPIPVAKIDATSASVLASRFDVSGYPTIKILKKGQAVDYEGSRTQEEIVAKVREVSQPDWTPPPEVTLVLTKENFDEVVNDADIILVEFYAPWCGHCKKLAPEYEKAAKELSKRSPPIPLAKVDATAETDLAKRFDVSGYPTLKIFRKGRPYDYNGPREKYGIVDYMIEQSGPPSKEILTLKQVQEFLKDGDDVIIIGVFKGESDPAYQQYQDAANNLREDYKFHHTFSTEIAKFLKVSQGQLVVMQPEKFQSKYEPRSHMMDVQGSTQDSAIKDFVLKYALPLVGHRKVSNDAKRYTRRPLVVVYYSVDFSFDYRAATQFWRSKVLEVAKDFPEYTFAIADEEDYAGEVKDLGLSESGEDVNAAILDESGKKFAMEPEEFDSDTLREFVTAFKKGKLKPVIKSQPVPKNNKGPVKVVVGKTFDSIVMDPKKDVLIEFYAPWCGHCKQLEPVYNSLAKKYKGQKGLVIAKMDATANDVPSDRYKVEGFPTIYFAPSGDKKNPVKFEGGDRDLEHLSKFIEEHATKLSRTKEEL
Briefly: Insulin reductase activity assay, Erp72. Type of test: biochemical.

The target in the next test is T6, VKOR of M. tuberculosis (Mycobacterium tuberculosis, UniProt I6X5W1).
T6 sequence (I6X5W1 1-210): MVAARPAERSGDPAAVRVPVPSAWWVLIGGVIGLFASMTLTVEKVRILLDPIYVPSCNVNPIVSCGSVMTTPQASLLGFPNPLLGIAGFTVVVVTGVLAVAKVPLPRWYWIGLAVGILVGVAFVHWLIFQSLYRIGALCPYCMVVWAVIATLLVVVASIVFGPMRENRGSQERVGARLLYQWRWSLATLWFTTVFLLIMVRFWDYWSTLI
The test is classed as cell-based. The settings on record: agar assay.

Test [1] deals with T7, DsbB (Escherichia coli, UniProt P0A6M2, C49V/C8A).
T7 construct: expressed in transfected cells; host or cells: E. coli DHB7935 (HK295 ΔdsbB λatt::malF-lacZ102, φ80::pDSW206dsbBhis6-c-myc)
T7 sequence (P0A6M2 whole entry C8A/C49V): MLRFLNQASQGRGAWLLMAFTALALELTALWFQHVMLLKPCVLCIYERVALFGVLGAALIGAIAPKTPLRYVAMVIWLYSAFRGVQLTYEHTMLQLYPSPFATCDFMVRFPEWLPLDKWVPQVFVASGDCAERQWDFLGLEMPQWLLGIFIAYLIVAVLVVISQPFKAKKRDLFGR
The test is described as follows: cell-based. As to conditions: for EC50 RATIO (EC50 compound 16/EC50): E. coli DHB7935, liquid media. The test is classed as cell-based, E. coli.

Test [2] concerns the target DsbB (Escherichia coli, UniProt P0A6M2). Briefly: Oxidation of DsbA by DsbB in growing E. coli (in vivo alkylation assay). The settings on record: liquid minimal medium.
Experimental: Second, we measured MICs of the strongest inhibitors in terms of their effects on the oxidation of DsbA by DsbB and on the inhibition of disulfide bond formation in growing liquid cultures. […] The oxidation of DsbA was assessed by a standard alkylation assay for free cysteines in DsbA.
The in vivo chemical alkylation procedure was done as described previously (Chng S et al. Science 337, 1665-1668 (2012)). […] A 500 μl culture aliquot was then transferred to a 1.5 ml tube and precipitated with 50 μl of trichloroacetic acid (TCA, 100%, Mallinckrodt Baker). The mixture was incubated on ice for 10 min and precipitated proteins were pelleted at 18 000 g for 10 min. The protein pellet was washed with 600 μl ice-cold acetone and incubated on ice for 10 min. The protein was re-pelleted by centrifugation at 18 000 g for 3 min and left to air-dry at room temperature. The TCA-precipitated proteins were either directly subjected to alkylation or first reduced before alkylation. For reduction, proteins were incubated in 100 μl 100 mM Tris HCl, pH 8.0 containing 0.1% SDS and 100 mM dithiothreitol (DTT, Invitrogen) for 30 min at room temperature. M63 (500 μl) medium was added and the reduced proteins were re-precipitated with TCA and further washed with acetone. […]
The target of another test is T8, DsbB-DsbAC33A dimer (Escherichia coli, UniProt P0A6M2, C49V/C8A).
T8 construct: made in house
T8 sequence (P0A6M2 whole entry C8A/C49V): as above
Briefly: Mass spectrometry of DsbB-DsbAC33A complex treated with compound. Type of test: binding, E. coli. As to the method:
Since the theoretical molecular weight of compound 16.6 is 289.54 Da, the 35.9-Da mass loss may represent a leaving chloride ion. This mass adduct was not observed when either DsbB (oxidized), DsbA (reduced) or DsbAC33A, alone was treated with the compound (FIG. 7C).

In a further test the target is E. coli DsbB (Escherichia coli, UniProt P0A6M2). Briefly: Blue/white beta-galactosidase agar assay, DsbB-based E. coli strain. Type of test: cell-based. As to conditions: for MIC for blue color appearance / minimal inhibitory concentration of DsbB: β-galactosidase agar media assay.
Chain of E. coli DsbB (P0A6M2 whole entry): as the sequence (P0A6M2 whole entry C8A/C49V) above, with A8C, V49C counted along it
For another test, the target named is T9, purified EcDsbB (Escherichia coli, UniProt P0A6M2, C49V/C8A).
T9 construct: made in house; host or cells: E. coli
T9 sequence (P0A6M2 whole entry C8A/C49V): as the sequence (P0A6M2 whole entry C8A/C49V) above
The test is described as follows: In vitro assay of purified DsbB (ubiquinone reduction). The test is classed as biochemical, E. coli. From the text: In addition to the in vivo assays of MICs, we have purified DsbB from E. coli and assessed the concentration dependence for inhibition of the enzyme's activity in oxidizing DsbA.
In this assay, we determine the concentration of a compound necessary to reduce the activity of purified DsbB enzyme by 50%. DsbB uses ubiquinone as a co-factor for the generation of disulfide bonds. DsbB oxidizes DsbA and reduces ubiquinone. When it is in the oxidized state, ubiquinone absorbs strongly at 275 nm but it has a diminished absorbance when it is in the reduced state at the same wavelength. Therefore, DsbB activity can be measured by the reduction of ubiquinone and this is assessed by following the decrease of absorbance of ubiquinone at 275 nm. The assay uses 20 μM purified and DTT-reduced DsbA, 20 uM UbQ-5, and 2 nM purified DsbB at pH6.0.
We tested several compounds for their inhibitory effect on EcDsbB-mediated ubiquinone reduction using purified enzymes. In this assay, reduced DsbA provides the source of electrons that are used by EcDsbB to reduce ubiquinone-5. The compounds show dose-dependent inhibition of EcDsbB with half-maximal inhibitory concentrations (IC50) in the low-μM range.

Test [3] deals with DsbBs from other gram-negative pathogens. The test is classed as cell-based. As to conditions: agar assay, 384-well plates.
Test [4] has as its system RcsF, a substrate of DsbA. The test is described as follows: Disulfide bond formation in RcsF in growing E. coli liquid culture. The settings on record: liquid minimal medium. Type of test: cell-based.

Chain of DsbB (Escherichia coli, UniProt P0A6M2) (P0A6M2 whole entry): as the sequence (P0A6M2 whole entry C8A/C49V) above, with A8C, V49C counted along it

Take `CNC(=O)C#CCC1C(=O)c2ccccc2C1=O` [Compound 1]: the “inhibition of PDI activity” value against PDI is reported as “inhibited”. For the same compound, the “inhibition of VKOR activity” value against mouse VKORc1 is recorded as “inhibited”. Also, in the test on M. tuberculosis H37Rv, the “effect on growth of M. tuberculosis (in words)” value is “relatively strong effect in only one of the three media”. Moreover, at Erp5, the “inhibition of Erp5 activity” value is “inhibited”. Also, at Erp57, the “inhibition of Erp57 activity” value was “inhibited”. For the same compound, the “inhibition of Erp72 activity” value on Erp72 is “inhibited”.

For the compound `O=c1c(Cl)c(Cl)cnn1Cc1ccccc1Cl` [Compound 16.6], the “concentration up to which no inhibition of VKOR was observed” value on VKOR of M. tuberculosis was greater than 50 µM. In addition, at DsbB [1], the negative-log EC50 (pEC50) is 6.80, the “fold more inhibitory than compound 16” value was determined as 23 fold and the “EC50 RATIO (EC50 compound 16/EC50)” value came out at 23.03. Also, the “MIC, oxidation of DsbA by DsbB” value at DsbB [2] came out at 0.7 µM. Further, the “adduct on Cys44 of DsbB” value on DsbB-DsbAC33A dimer (high-resolution tandem mass spectrometry, chymotrypsin digest) worked out at 252.995 Da. At DsbB-DsbAC33A dimer (ion-trap mass spectrometry), the “adduct with the DsbB-DsbAC33A dimer” value stood at 253.6 Da. In addition, on E. coli DsbB (MIC DsbB versus highest concentration without VKOR inhibition), the “difference between inhibition of DsbB and of VKOR” value was “equal to or greater than two orders of magnitude”. The “MIC for blue color appearance / minimal inhibitory concentration of DsbB” value on E. coli DsbB amounted to 0.53 µM. The negative-log IC50 (pIC50) on purified EcDsbB (in vitro assay, read-out: IC50) was 7.72. For the same compound, the “inhibition of DsbBs of other gram-negative bacteria expressed in E. coli, in words” value in [3] is reported as “most effective inhibitor; also recorded: one of the most effective inhibitors”.

As to `O=c1c(Cl)c(Cl)cnn1Cc1ccccc1` [Compound 16], the “MIC, disulfide bond formation in RcsF” value in test [4] turned out to be 100 µM (≈ 25.5 µg/mL). Moreover, at DsbB [1], the pEC50 was 5.29 and the “EC50 RATIO (EC50 compound 16/EC50)” value was found to be 1.00. In addition, the “MIC, oxidation of DsbA by DsbB” value at DsbB [2] came out at 5 µM. Further, the “MIC for blue color appearance / minimal inhibitory concentration of DsbB” value on E. coli DsbB was found to be 5.7 µM. This compound gave an IC50 against purified EcDsbB (IC50 (μM), Table 9) of 1.86 µM. The negative-log IC50 (pIC50) at purified EcDsbB (IC50, purified DsbB) was 5.73.
